The subject of assay [1] is primary cortical neurons. Type of assay: cell-based.
For assay [2], the target named is T1, human recombinant caspase-2 (Homo sapiens, UniProt P42575).
T1 construct: purchased BIOMOL
T1 sequence (P42575 170-325 limits assumed): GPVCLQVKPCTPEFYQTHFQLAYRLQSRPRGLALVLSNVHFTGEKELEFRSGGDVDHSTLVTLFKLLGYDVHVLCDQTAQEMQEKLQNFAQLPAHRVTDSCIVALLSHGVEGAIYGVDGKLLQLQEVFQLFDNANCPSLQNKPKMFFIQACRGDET
T1 sequence (P42575 348-452 limits assumed): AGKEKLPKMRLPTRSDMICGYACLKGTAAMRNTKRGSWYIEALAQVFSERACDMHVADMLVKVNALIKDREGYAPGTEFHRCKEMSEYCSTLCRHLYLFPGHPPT
The experiment in a line: In vitro VDVAD-AMC cleavage by recombinant caspase-2. Type of assay: biochemical. Conditions: inhibitor 2 μM, 50 μM VDVAD-AMC, caspase-2 125 U, 30 min at 37° C.
Description: Activity of human recombinant caspase-2 (BIOMOL QuantiZyme™ Assay System) was assessed in 100 μl assay buffer (50 mM HEPES, pH 7.4, 100 mM NaCl, 0.1% CHAPS, 10 mM DTT, 1 mM EDTA, 10% glycerol).

Another assay deals with Jurkat cells. The experiment in a line: VP16-induced cell death of Jurkat cells, cytoprotection assay. Type of assay: cell-based, human. The conditions noted are these: VP16 10 μM, 7-8 hrs; inhibitors 50 μM.
The subject of assay [3] is primary cortical neurons. The assay can be described thus: Real-time FC and fixed-time FM detection of ΔΨm and PMP in neurons treated with neurotoxic molecules. Type of assay: cell-based, mouse. The conditions noted are these: for ΔΨm and PMP state of non-trypsinized neurons (FM): FM co-detection JC-1/7-AAD, 45 minutes (mClCCP 100 μM, 30 min).
Assay [4] relates to neonatal ischemic brain injury in 7 day-old rats.
Where [5] appears, read: SD model, compound added at the start of SD at the concentration of column '[ ], μM' (first concentration/target where two are printed).

Like-named read-outs stand apart in the source and are kept apart here. Starred links: 1 amine or outer side, 2 acyl side, 3 side chain; linkers in the order of their positions; H or OH if unused. Positions of bridges follow the written chain, without caps; N, C: chain ends. Non-standard residues stand in square brackets, D forms with d. Residues, ends and D or L forms follow the SMILES beside them. Chains are numbered I, II in the order given. *: point of attachment. Actinocin(9to1) = Cc1c2oc3c(C)ccc(C(=O)[*:1])c3nc-2c(C(=O)[*:2])c(N)c1=O; X1 = COC(=O)C[C@H](N*)C(=O)COc1c(F)cccc1F; Sta = CC(C)C[C@H](N)[C@@H](O)CC(=O)O; Quinaldoyl = O=C(c1ccc2ccccc2n1)*; NMeV = CN[C@H](C(=O)O)C(C)C; Isovaleryl = CC(C)CC(=O)*; Cbz = O=C(OCc1ccccc1)*; Sar = CNCC(=O)O; CH2F = FC*

As to `Cn1cnc(N)c2ncnc1-2` [3-Methyladenine], in the assay on primary cortical neurons [1] (setting [5]), the Survival entry is “No”. Turning to `CC(=O)N[C@H](C(=O)N[C@@H](CC(=O)O)C(=O)N[C@H](C(=O)N[C@@H](C)C(=O)N[C@H](C=O)CC(=O)O)C(C)C)C(C)C` [Ac-VDVAD-Cho] (Ac-VDVAD-aldehyde), in assay [2], the “inhibition of VDVAD-AMC cleavage by recombinant caspase-2” value is recorded as “blocked”. As to `Cc1c2oc3c(C)ccc(C(=O)N[C@@H]4C(=O)N[C@H](C(C)C)C(=O)N5CCC[C@H]5C(=O)N(C)CC(=O)N(C)[C@@H](C(C)C)C(=O)O[C@@H]4C)c3nc-2c(C(=O)N[C@@H]2C(=O)N[C@H](C(C)C)C(=O)N3CCC[C@H]3C(=O)N(C)CC(=O)N(C)[C@@H](C(C)C)C(=O)O[C@@H]2C)c(N)c1=O` [Actinomycin D] (I: T[dV]P[Sar][NMeV] / II: T[dV]P[Sar][NMeV]; ester I:1-I:C, II:1-II:C; linker I:N-II:N via Actinocin(9to1)), in the assay with Jurkat cells, the “terminal nuclear alterations and PMP in VP16-treated Jurkat cells” value is listed as “prevent neither ΔΨm loss nor PMP”; the “ΔΨm loss in VP16-treated Jurkat cells” value is “prevent neither ΔΨm loss nor PMP”. Besides, the “survival / protection of SD-neurons against cell death (apoptosis hallmarks overall)” value (“survival / protection of SD-neurons” for short) in the assay with primary cortical neurons [1] is recorded as “promote survival”. Further, in the assay on primary cortical neurons [1] (setting [5]), the Survival entry was “Yes”. On to `CC(C)[C@H](CO)Nc1nc(Nc2cc(N)cc(Cl)c2)c2ncn(C(C)C)c2n1` [Aminopurvalanol], for which the Survival entry in the assay on primary cortical neurons [1] (setting [5]) is recorded as “No”. As for `CC(=O)Oc1ccccc1C(=O)O` [Aspirin], the Survival result in the assay with primary cortical neurons [1] (setting [5]) is “No”.

On to `CC(=O)OCOC(=O)CN(CC(=O)OCOC(C)=O)c1ccccc1OCCOc1ccccc1N(CC(=O)OCOC(C)=O)CC(=O)OCOC(C)=O` [BAPTA-AM, acetoxymethyl ester of 1,2-bis(2-aminophenoxy)ethane-N,N,N′,N′-tetraacetic acid], for which the Survival result in the assay with primary cortical neurons [1] is “No”.

`CO/C1=C\C(C)=C\[C@@H](C)[C@@H](O)[C@@H](C)C/C(C)=C/C=C/[C@H](OC)[C@@H]([C@@H](C)[C@@H](O)[C@H](C)[C@@]2(O)C[C@@H](O)[C@H](C)[C@@H](C(C)C)O2)OC1=O` [Bafilomycin A1]: the Survival entry with primary cortical neurons [1] (setting [5]) is “No”. For `C[C@@H]1C[C@@H]([C@H](O)CC2CC(=O)NC(=O)C2)C(=O)[C@@H](C)C1` [Cycloheximide], in the assay on Jurkat cells, the “terminal nuclear alterations and PMP in VP16-treated Jurkat cells” value was “prevent neither ΔΨm loss nor PMP”; the “ΔΨm loss in VP16-treated Jurkat cells” value is “prevent neither ΔΨm loss nor PMP”. Moreover, in the assay on primary cortical neurons [1], the “survival / protection of SD-neurons” value was “promote survival”. Also, the Survival result in the assay with primary cortical neurons [1] (setting [5]) is “Yes”. For the compound `O=S(=O)([O-])c1cc(N=C=S)ccc1C=Cc1ccc(N=C=S)cc1S(=O)(=O)[O-].[Na+].[Na+]` [DIDS, 4,4′-Diisothiocyanastilbene-2,2′-disulfonic acid disodium salt], in the assay on primary cortical neurons [1] (setting [5]), the Survival result was “No”. With `CCCCCCCCCCC1=C(C)C(=O)C(OC)=C(OC)C1=O` [Decyl-Ubiquinone], in the assay with primary cortical neurons [1] (setting [5]), the Survival result is “No”. For `O=c1c(-c2ccc(O)cc2)coc2cc(O)cc(O)c12` [Genistein], the Survival result in the assay with primary cortical neurons [1] was “No”. Take `CC1CNCCN1S(=O)(=O)c1cccc2cnccc12` (stereo not drawn) [H-7]: the Survival result in the assay on primary cortical neurons [1] (setting [5]) is “No”. Consider `CCC(=C/[C@H](C)C/C=C/C(C)=C/[C@@H](C)C(=O)[C@@H](C)[C@H](O)[C@@H](C)C/C(C)=C/C(=O)O)/C=C/[C@@H]1OC(=O)C=C[C@@H]1C` [Leptomycin B], for which the Survival entry in the assay with primary cortical neurons [1] (setting [5]) is “No”.

In the case of `CN1CC=C(c2ccccc2)CC1` [MPTP, 1-methyl-4-phenyl-1,2,3,6-tetrahydropyridine], in the assay with primary cortical neurons [3], the “ΔΨm and PMP state of non-trypsinized neurons (FM)” value is “most neurons are ΔΨm low without any sign of PMP”. Also, the ΔΨm low neurons with primary cortical neurons [3] (real-time FC, after 15 minutes of treatment) came out at 49.6%. With `CC(=O)N[C@@H](CS)C(=O)O` [N-Acetyl-Cystein], the Survival entry in the assay with primary cortical neurons [1] (setting [5]) is given as “No”. For `C=C1[C@@H](O)[C@@H]2O[C@]3(CC[C@H](/C=C/[C@@H](C)[C@@H]4CC(C)=C[C@@]5(O[C@H](C[C@@](C)(O)C(=O)O)CC[C@H]5O)O4)O3)CC[C@H]2O[C@@H]1[C@@H](O)C[C@H](C)[C@H]1O[C@@]2(CCCCO2)CC[C@H]1C` [Okadaic acid], the Survival entry in the assay with primary cortical neurons [1] (setting [5]) is on record as “No”.

On to `COc1cccc(-c2cc(=O)c3ccccc3o2)c1N` [PD 98059], for which the Survival result with primary cortical neurons [1] (setting [5]) is recorded as “No”. As to `CC(C)CC(=O)N[C@H](C(=O)N[C@H](C(=O)N[C@@H](CC(C)C)[C@@H](O)CC(=O)N[C@@H](C)C(=O)N[C@@H](CC(C)C)[C@@H](O)CC(=O)O)C(C)C)C(C)C` [Pepstatin] (Isovaleryl-VV[Sta]A[Sta]-OH), the Survival entry with primary cortical neurons [1] (setting [5]) was “No”.

For the compound `COC(=O)C[C@H](NC(=O)[C@H](C)NC(=O)[C@@H](NC(=O)[C@H](CC(=O)OC)NC(=O)[C@@H](NC(=O)c1ccc2ccccc2n1)C(C)C)C(C)C)C(=O)COc1c(F)cccc1F` [Q-VDVAD-OPH, Quinolinylcarnonyl-L-Valinyl-L-Aspartyl (methyl ester)-X-Vanilyl-L-Alaninyl-L-Aspartyl (methyl ester) 2,6-difluorophenyl ester] (Quinaldoyl-VD(OMe)VA-X1), the “survival / protection of SD-neurons” value with primary cortical neurons [1] is on record as “promotes survival of cortical neurons”. Further, the “infarct volume (% damage in the lesioned ipsilateral hemisphere)” value in assay [4] (single i.p. dose before ischemia, 48 hours, mean ±SEM) was 5.7±2.3%. In addition, the “reduction in infarct volume” value in assay [4] (single i.p. dose before the ischemic onset, 48 hours after ischemia, vs ischemic control) came out at 74%. In addition, in assay [4] (single i.p. dose, 48 hours), the “animals (of the 12 studied) with a very marked smaller infarct” value is listed as 8, the “mean infarct of the four other animals” value is given as 16.5±1.32% and the “median infarct of the 8 animals with a very marked smaller infarct” value came out at 0.5%. The “animals that exhibited no infarct” value in assay [4] (single i.p. dose, 48 hrs after ischemia) came out at 8. Besides, the “inhibition of VDVAD-AMC cleavage by recombinant caspase-2” value in assay [2] is recorded as “blocked”. In the case of `CC[C@H](CO)Nc1nc(NCc2ccccc2)c2ncn(C(C)C)c2n1` [Roscovitine], the Survival result in the assay with primary cortical neurons [1] was “No”.

`Oc1ccc(-c2nc(-c3ccncc3)c(-c3ccc(F)cc3)[nH]2)cc1` [SB 202190]: in the assay with primary cortical neurons [1] (setting [5]), the Survival result is “No”.

On to `Cc1c(C)c2c(c(C)c1O)CCC(C)(C(=O)O)O2` (stereo not drawn) [Trolox ®], for which the Survival result with primary cortical neurons [1] (setting [5]) is reported as “No”. As for `CCO` [ethanol], in the assay with primary cortical neurons [3], the “ΔΨm and PMP state of non-trypsinized neurons (FM)” value is reported as “induces a rapid PMP”. In the assay on primary cortical neurons [3] (real-time FC, after 5 minutes), this compound displayed a PMP of 98% and a ΔΨm loss of 75%. Turning to `N[C@@H](CCC(=O)N[C@@H](CS)C(=O)NCC(=O)O)C(=O)O` [glutathion], in the assay with primary cortical neurons [1] (setting [5]), the Survival entry is “No”. As for `N#CC(C#N)=NNc1cccc(Cl)c1` [mClCCP, carbonyl cyanide m-chlorophenylhydrazone], in the assay with primary cortical neurons [3], the “ΔΨm and PMP state of non-trypsinized neurons (FM)” value is “induces ΔΨm disruption”. For the same compound, in the assay on primary cortical neurons [3] (real-time FC, 100 μM), the “time of treatment at which ΔΨm loss of neuronal population is maximal” value stood at 2 min.

With `O=C(NC(Cc1ccccc1)C(=O)NC(Cc1ccccc1)C(=O)CF)OCc1ccccc1` (stereo not drawn) [z-FF-fmk, N-benzyloxycarbonyl-Phe-Phe-fluoromethylketone] (Cbz-Phe-Phe-CH2F; configuration not given here), the Survival result in the assay on primary cortical neurons [1] (setting [5]) is given as “No”. Turning to “N-benzyloxycarbonyl-Phe-Ala-fluoromethylketone [z-FA-fmk]”, the Survival entry in the assay with primary cortical neurons [1] (setting [5]) is recorded as “No”.

Regarding Ruthenium Red, the Survival result in the assay on primary cortical neurons [1] (setting [5]) is “No”.

The record behind these values is patent US20120329721A1, “MEANS FOR PREVENTING AND TREATING CELLULAR DEATH AND THEIR BIOLOGICAL APPLICATIONS” (CHIESI FARMACEUTICI S.P.A., priority 2003, published 2012).
